Key:
Assay type in all cases: physicochemical
[1] = Wet particle size distribution by laser diffraction (Malvern Mastersizer 3000); settings: dispersant heptane with 0.2% Span 80
Procedure: Wet particle size distributions were measured using a Malvern Mastersizer 3000 laser diffraction particle size analyzer, with stir speed set at 2200 rpm. Heptane with 0.2% by volume of Span 80 was used as dispersant. To obtain distribution measurements, the Hydro MV medium volume automated dispersion unit was filled with dispersant and aligned. The background was then measured. 80 to 100 mg of sample weighed into a 20 mL vial, to which approximately 3 mL of dispersant was added. The mass was adjusted based on the particle size, with obscuration between 5% and 16%. The whole sample was added to the Hydro MV unit, and the sample was analyzed five times after a 160 second pre-measurement delay. Analysis time was 20 seconds (10 seconds with the red laser, 10 seconds with the blue laser) with no delay between measurements. Data obtained was processed using Mie theory with a sample refractive index of 1.69 and absorption index of 0.1, using the general purpose model with normal sensitivity and the non-spherical particle type. 15 sets of raw data were averaged to form the Global Mean, which represents the average for a sample. If the sample was determined to be variable, further preparations were examined to determine which results were anomalous. Any anomalous results were discarded. Samples were thoroughly mixed prior to sampling (e.g., some samples were aliquoted using a spinning […]).

[2] = Modulated differential scanning calorimetry, glass transition temperature (TA Instrument Q2000 DSC); settings: for Tg at 25° C., 0% RH: 0% relative humidity
Procedure: Modulated differential scanning calorimetry (DSC) analysis was completed with a TA Instrument Q2000 DSC. The samples were heated at 2° C. min^−1, temperature modulation parameters of 0.318° C. (amplitude), and over a temperature range of 6-80° C. to 200° C. The samples were analyzed using a closed aluminum pan.

[3] = Thermogravimetric analysis (TA Instruments Q5000 TGA)
Procedure: Thermal gravimetric analysis of the samples was performed using the TA Instruments Q5000 TGA. Table 5 provides thermogravimetric analysis data for several distinct solid forms of Compound (I), including mass loss information from multiple replicates across different temperature ranges. As above, Comparator 1 corresponds to the solid form of Compound (I) prepared substantially in accordance with the process detailed in Step 1A in Example 1 of WO 2015/127310. Also, as above, Comparator 2 corresponds to the solid form of Compound (I) prepared substantially in accordance with the process detailed in Example 31 of WO 2014/039899. Comparator 3 corresponds to the solid form of Compound (I) prepared substantially in accordance with the process detailed in Step 1 in Example 1 of WO 2015/127310.

[4] = Mean bulk density, mean tapped density and Hausner ratio (modified USP <616>); settings: for Hausner ratio: ratio of initial volume to constant volume (Vo/Vf)
Procedure: Mean bulk density and mean tapped density were determined using a modified method based on USP <616>. Powder was poured into a clean, dry pre-weighed 25 mL cylinder. Powder was added to a total volume of 20 mL to 25 mL without compacting the sample. The mass and initial volume (Vo) of the powder were recorded. The mean bulk density was determined as the average of the mass over initial volume across multiple samples. To determine mean tapped density, the sample was tapped using a Copley JV2000 tapped density tester using the following number of taps: 500, 750, and sets of 1250 taps up to 10,000. The volume was recorded after each set of taps, and the sample was tapped until it reached a constant volume (Vf). The mean tapped density was determined as the average of mass over constant volume across multiple samples. Each sample was analyzed in duplicate. The Hausner ratio was calculated as the ratio of initial volume to the constant volume (Vo/Vf).

Wet particle size distribution D10 [1] [μm] | Wet particle size distribution D50 [1] [μm] | Wet particle size distribution D90 [1] | Mean bulk density [4] [g/cc] | Mean tapped density [4] [g/cc] | Hausner ratio [4] | Tg at 25° C., 0% RH [2] [°C] | SMILES | also measured
5.24 | 13.3 | 28.4 μm | 0.20 | 0.28 | 1.4 |  | CC(C)(C=C(C#N)C(=O)N1CCCC(n2nc(-c3ccc(Oc4ccccc4)cc3F)c3c(N)ncnc32)C1)N1CCN(C2COC2)CC1 (stereo not shown) [Compound (I) prepared by a spray drying process described he] [2-[3-[4-amino-3-(2-fluoro-4-phenoxy-phenyl)pyrazolo[3,4-d]pyrimidin-1-yl]piperidine-1-carbonyl]-4-methyl-4-[4-(oxetan-3-yl)piperazin-1-yl]pent-2-enenitrile] | Tg at 25° C., 0% RH ([2]; listed as Compound (I) prepared by spray drying process described herein): 93.8 °C; Mass loss during TGA ([3]; between 35° C. and 230° C.): 1.2% mass loss between 35 °C and 230 °C
 |  |  |  |  |  | 90.1 | CC(C)(C=C(C#N)C(=O)N1CCCC(n2nc(-c3ccc(Oc4ccccc4)cc3F)c3c(N)ncnc32)C1)N1CCN(C2COC2)CC1 (stereo not shown) [Comparator 3, 2-[3-[4-amino-3-(2-fluoro-4-phenoxy-phenyl)pyrazolo[3,4-d]pyrimidin-1-yl]piperidine-1-carbonyl]-4-methyl-4-[4-(oxetan-3-yl)piperazin-1-yl]pent-2-enenitrile] | Mass loss during TGA ([3]; between 30° C. and 100° C.): 3.8% mass loss between 30 °C and 100 °C; Mass loss during TGA ([3]; between 100° C. and 140° C.): 17.6% mass loss between 100 °C and 140 °C
1.9 |  | 476-683 μm |  |  | 1.2 |  | CC(C)(C=C(C#N)C(=O)N1CCCC(n2nc(-c3ccc(Oc4ccccc4)cc3F)c3c(N)ncnc32)C1)N1CCN(C2COC2)CC1 (stereo not shown) [Compound (I) prepared by a precipitation process described h] [2-[3-[4-amino-3-(2-fluoro-4-phenoxy-phenyl)pyrazolo[3,4-d]pyrimidin-1-yl]piperidine-1-carbonyl]-4-methyl-4-[4-(oxetan-3-yl)piperazin-1-yl]pent-2-enenitrile] | Tg at 25° C., 60% RH ([2]; 60% relative humidity, listed as Compound (I) prepared by precipitation process described herein (not micronized)): 69.6 °C; Mass loss during TGA ([3]; between 30° C. and 190° C.): 0.8% mass loss between 30 °C and 190° C.;; Mass loss during TGA ([3]; between 40° C. and 205° C.): 0.4% mass loss between 40 °C and 205° C.;; Mass loss during TGA ([3]; between 40° C. and 225° C.): 0.7% mass loss between 40 °C and 225 °C; Mass loss during TGA ([3]; between 43° C. and 230° C.): 1.9% mass loss between 43 °C and 230° C.;; Mass loss during TGA ([3]; between 44° C. and 230° C.): 1.0% mass loss between 44 °C and 230 °C

More lines, now with the values behind:

SMILES | Wet particle size distribution D10 [1] [μm] | Wet particle size distribution D50 [1] [μm] | Wet particle size distribution D90 [1] | Mean bulk density [4] [g/cc] | Mean tapped density [4] [g/cc] | Hausner ratio [4] | Tg at 25° C., 0% RH [2] [°C] | also measured
CC(C)(C=C(C#N)C(=O)N1CCCC(n2nc(-c3ccc(Oc4ccccc4)cc3F)c3c(N)ncnc32)C1)N1CCN(C2COC2)CC1 (stereo not shown) [Comparator 1, 2-[3-[4-amino-3-(2-fluoro-4-phenoxy-phenyl)pyrazolo[3,4-d]pyrimidin-1-yl]piperidine-1-carbonyl]-4-methyl-4-[4-(oxetan-3-yl)piperazin-1-yl]pent-2-enenitrile] | 18.3 | 237 | 694 μm | 0.28 | 0.39 | 1.4 |  | Mass loss during TGA ([3]; between 40° C. and 118° C.): 3.3% mass loss between 40 °C and 118 °C; Mass loss during TGA ([3]; between 118° C. and 237° C.): 3.2% mass loss between 118 °C and 237 °C
CC(C)(C=C(C#N)C(=O)N1CCCC(n2nc(-c3ccc(Oc4ccccc4)cc3F)c3c(N)ncnc32)C1)N1CCN(C2COC2)CC1 (stereo not shown) [Comparator 2, 2-[3-[4-amino-3-(2-fluoro-4-phenoxy-phenyl)pyrazolo[3,4-d]pyrimidin-1-yl]piperidine-1-carbonyl]-4-methyl-4-[4-(oxetan-3-yl)piperazin-1-yl]pent-2-enenitrile] | 56.9 | 258 | 575 μm | 0.20 | 0.27 | 1.4 | 90.1 | Mass loss during TGA ([3]; between 40° C. and 135° C.): 3.7% mass loss between 40 °C and 135 °C; Mass loss during TGA ([3]; between 135° C. and 233° C.): 2.3% mass loss between 135 °C and 233 °C
